Article PMC4734333, “Structural characterisation of human galectin-4 N-terminal carbohydrate recognition domain in complex with glycerol, lactose, 3′-sulfo-lactose, and 2′-fucosyllactose” (Scientific Reports, 2016)
Values belong to the molecule of their own block, whether it stands above or below them.

Columns and labels:
Type in all cases: binding
[1] = molecular target: T1, galectin-4N (human galectin-4 N-terminal CRD) (Homo sapiens, UniProt P56470); experiment: X-ray crystal structure ([…] Å) and competitive fluorescence anisotropy
T1 construct: gene LGALS4
T1 sequence (P56470 1-154): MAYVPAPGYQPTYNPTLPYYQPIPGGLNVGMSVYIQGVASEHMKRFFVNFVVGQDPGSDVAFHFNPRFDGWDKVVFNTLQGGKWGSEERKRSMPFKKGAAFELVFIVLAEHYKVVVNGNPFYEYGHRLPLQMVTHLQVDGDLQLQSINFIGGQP

[2] = molecular target: T1, galectin-4N (human galectin-4 N-terminal CRD); experiment: as above; remark: listed apart in the source
[3] = molecular target: T2, galectin-4N (human galectin-4 N-terminal CRD) (Homo sapiens, UniProt P56470); experiment: competitive fluorescence anisotropy
T2 construct: gene LGALS4; N-terminal CRD (galectin-4N)
T2 sequence (P56470 1-154 limits assumed): T1 sequence (P56470 1-154)

[4] = molecular target: T1, galectin-4N (human galectin-4 N-terminal CRD); experiment: X-ray crystal structure ([…] Å) and competitive fluorescence anisotropy; remark: listed apart in the source

SMILES: C[C@@H]1O[C@@H](O[C@H]2[C@H](O[C@H]3[C@H](O)[C@@H](O)C(O)O[C@@H]3CO)O[C@H](CO)[C@H](O)[C@@H]2O)[C@@H](O)[C@H](O)[C@@H]1O (stereo partly shown) [2′FL, 2′-fucosyllactose]
Kd [1]: 380 µM

SMILES: OC[C@H]1O[C@@H](O[C@H]2[C@H](O)[C@@H](O)C(O)O[C@@H]2CO)[C@H](O)[C@@H](O)[C@H]1O (stereo partly shown) [lactose]
Kd [2]: 1300 µM

Kd [3]: 164 µM
SMILES: CC(=O)N[C@H]1[C@@H](O[C@H]2[C@@H](O)[C@@H](CO)O[C@@H](O[C@H]3[C@H](O)[C@@H](O)C(O)O[C@@H]3CO)[C@@H]2O[C@@H]2O[C@@H](C)[C@@H](O)[C@@H](O)[C@@H]2O)O[C@H](CO)[C@H](O)[C@@H]1O (stereo partly shown) [A-tetrasaccharide]

Kd [4]: 510 µM
SMILES: O=S(=O)(O)O[C@H]1[C@@H](O)[C@@H](CO)O[C@@H](O[C@H]2[C@H](O)[C@@H](O)C(O)O[C@@H]2CO)[C@@H]1O (stereo partly shown) [3′SuL, lactose-3′-sulfate]
